Results on five compounds are retold here after patent US8946299B2, “Use of calixarenes associated with an antibiotic in the treatment of bacterial infections” (Universite de Lorraine, priority 2011, dated 2015).

Assay type in all cases: cell-based
Test [1] concerns cephalosporinase-hyperproducing strain of Escherichia coli (EcR2). In words: Chessboard technique: MICs alone and synergism of Cx1 combinations. As to conditions: antibiotic used alone; second figure of the cell; n = 4. From the text:
(§1) Three reference strains were used, corresponding to those studied for the MICs and MBCs (Minimum Bactericidal Concentration): Escherichia coli ATCC 25922, Staphylococcus aureus ATCC 29213, Pseudomonas aeruginosa ATCC 27853. For each of these strains 3 corresponding clinical isolates were chosen, having various antibiotic-resistance profiles, routinely used in standard fashion: • EcR1, EcR2, EcR3; • SaR1, SaR3, SaR4; • PaR2, PaR3, PaR5.
(§2) 1.3. Procedure: Chessboard Technique
(§3) The bacterial suspension is transferred to a 15 mL Falcon tube, centrifuged for 10 min at 4500 g, then the pellet is re-suspended in 1 mL of sterile distilled water. Suitable dilutions are then prepared in order to obtain a bacterial inoculum between 5·10^5 and 5·10^6 CFU/mL.
(§4) The MICs of the antibiotics were previously determined for each strain, by the method of microdilution in a liquid medium (CLSI (Clinical and Laboratory Standards Institute), 2003).
(§5) The same procedure is followed for the Cx1. […] Thus 64 ATB/Cx1 combinations are obtained.
(§6) The final volume contained in each of the wells must be 100 μL. Two controls must be present on each plate: • column 1 and 12: medium control • column 2 and 11: medium+bacteria control
(§7) Cx1: […] in the wells of […], starting with the lowest concentration.
(§8) ATB: 25 μL in the wells of rows H to A (columns 3 to 11), starting with the lowest concentration.
(§9) 50 μL in each of the wells of columns 2 to 11.
(§10) D2: Reading the Turbidity at 540 Nm.
(§11) The FIC (Fractional Inhibitory Concentration Index) value is determined by the following formula:
(§12) [formula] MICA in combination MICA alone MICB in combination MICB alone
(§13) When FIC≦0.5, there is a synergistic effect between antibiotic A and antibiotic B.
(§14) When 0.5<FIC≦1, there is an additive effect between antibiotic A and antibiotic B.
(§15) When 1<FIC≦4, there is an indifferent effect between antibiotic A and antibiotic B.
(§16) When FIC>4, there is an antagonistic effect between antibiotic A and antibiotic B.
(§17) For each strain and each antibiotic/Cx1 combination, the experiments were repeated a minimum of 3 times.

In test [2] the test system is ESBL-producing strain of Escherichia coli (EcR3). The description is as above. As to conditions: antibiotic used alone; second figure of the cell; n = 4.
Source text: as §1, §2, §3, §4, §5, §6, §7, §8, §9, §10, §11, §12, §13, §14, §15, §16, §17

Test [3] relates to EcR1: Penicillinase-Producing Escherichia coli without Associated Resistance. The test can be described thus: Antibiogram by the disk diffusion technique. As to conditions: Table A1, category from diameter vs Dmin Dmax. The protocol:
(§18) 5. Identification and Antibiogram 5.1 EcR1: Penicillinase-Producing Escherichia coli without Associated Resistance
(§19) The bacterial and antibiogram identification is carried out by the VITEK 2 system (bioMérieux) and by the disk diffusion technique.
(A growth-free zone around the sample is the usual read-out of agar diffusion tests.)

In test [4] the test system is EcR2: Cephalosporinase-Hyperproducing Escherichia coli. The test can be described thus: Antibiogram by the disk diffusion technique. As to conditions: Table B2; strain EcR2; diameters. The procedure:
5.2 EcR2: Cephalosporinase-Hyperproducing Escherichia coli Having an Associated Resistance to the Aminoglycosides, Quinolones and the Trimethoprim-Sulphamethoxazole Combination
The bacterial and antibiogram identification is carried out by the VITEK 1 system (bioMérieux) and by the disk diffusion technique

Test [5] concerns EcR1: Penicillinase-Producing Escherichia coli without Associated Resistance. In words: Antibiogram, MIC by the VITEK 2 system. As to conditions: Table A1, category from MIC. The protocol:
as §18, §19

Test [6] deals with Escherichia coli, Staphylococcus aureus and Pseudomonas aeruginosa strains. In words: Chessboard technique, summary over all strains and combinations tested.
Source text: as §1, §2
The FIC (Fractional Inhibitory Concentration Index) value is determined by the following formula: […]
as §17

Test [7] concerns Pseudomonas aeruginosa strain having a resistance to β-lactams (including the carbapenems), aminoglycosides, the trimethoprim-sulphamethoxazole combination and …. In words: Chessboard technique: MICs alone and synergism of Cx1 combinations. As to conditions: antibiotic used alone; second figure of the cell; n = 4.
Source text: as §1, §2, §3, §4, §5, §6, §7, §8, §9, §10, §11, §12, §13, §14, §15, §16, §17

Test [8] has as its system mucoid strain of Pseudomonas aeruginosa having a resistance to rifampicin and the trimethoprim-sulphamethoxazole combination (PaR5). The description is as above. As to conditions: antibiotic used alone; second figure of the cell; n = 4.
Source text: as §1, §2, §3, §4, §5, §6, §7, §8, §9, §10, §11, §12, §13, §14, §15, §16, §17

Test [9] concerns Pseudomonas aeruginosa strain ATCC 27853 (wild type). The description is as above. As to conditions: antibiotic used alone; second figure of the cell; n = 4.
Source text: as §1, §2, §3, §4, §5, §6, §7, §8, §9, §10, §11, §12, §13, §14, §15, §16, §17

In test [10] the test system is Pseudomonas aeruginosa strain having a resistance to β-lactams, the trimethoprim-sulphamethoxazole combination and fosfomycin (PaR2). As to conditions: antibiotic used alone; second figure of the cell; n = 4.
Source text: as §1, §2, §3, §4, §5, §6, §7, §8, §9, §10, §11, §12, §13, §14, §15, §16, §17

Test [11] deals with SaR4: Meticillin-Resistant Staphylococcus aureus. The test can be described thus: Antibiogram by the disk diffusion technique. As to conditions: Table F2; strain SaR4; diameters. The procedure:
5.6 SaR4: Meticillin-Resistant Staphylococcus aureus Having an Associated Resistance to the Aminoglycosides, Fluoroquinolones, Macrolides-Lincosamines-Synergistins and Ofloxacin The bacterial and antibiogram identification is carried out by the VITEK 2 system (bioMérieux) and by the disk diffusion technique
5.7 PaR2: Pseudomonas aeruginosa Having an Associated Resistance to the β-Lactams, the Trimethoprim-Sulphamethoxazole Combination and Fosfomycin The bacterial and antibiogram identification is carried out by the VITEK 2 system (bioMérieux) and by the disk diffusion technique

The subject of test [12] is PaR5: Pseudomonas aeruginosa. In words: Antibiogram by the disk diffusion technique. As to conditions: Table I1; strain PaR5. Set-up: unit not given here.

For `CO/N=C(\C(=O)N[C@@H]1C(=O)N2C(C(=O)O)=C(COC(C)=O)CS[C@H]12)c1csc(N)n1` [Cefotaxime], the “Initial MICs (antibiotic)” value in test [1] turned out to be 4 mg/L; in [2], 128 mg/L. The “Results (diameter)” value in test [3] is “Susceptible”. In addition, the diameter in mm in test [4] worked out at 24 mm. Further, in [5], the “Results (MIC)” value is given as “Susceptible”.

`CO[C@@]1(NC(=O)Cc2cccs2)C(=O)N2C(C(=O)O)=C(COC(N)=O)CS[C@@H]21` [Cefoxitin]: in test [3], the “Results (diameter)” value is listed as “Susceptible”. The diameter in mm in [4] was determined as 11 mm. In [5], the “Results (MIC)” value was “Susceptible”.

Regarding `CC(C)(O/N=C(\C(=O)N[C@@H]1C(=O)N2C(C(=O)[O-])=C(C[n+]3ccccc3)CS[C@H]12)c1csc(N)n1)C(=O)O` [Ceftazidime], the “nature of the interaction between Cx1 and the antibiotic” value in [6] is “synergism”. Further, the “MIC (antibiotic)” value is 16 µg/mL in test [7], 8 µg/mL in test [8], 4 µg/mL in test [9] and 8 µg/mL in [10]. Moreover, the “Initial MICs (antibiotic)” value was found to be 8 mg/L in [1] and 1 mg/L in test [2]. The diameter in mm in test [4] is 20 mm. In addition, the “Results (MIC)” value in test [5] was “Susceptible”.

As for `NC[C@H]1O[C@H](O[C@H]2[C@H](O)[C@@H](O[C@H]3O[C@H](CO)[C@@H](O)[C@H](N)[C@H]3O)[C@H](N)C[C@@H]2N)[C@H](O)[C@@H](O)[C@@H]1O` [Kanamycin], in [11], the diameter in mm came to 7 mm.

As for `CCn1cc(C(=O)O)c(=O)c2cc(F)c(N3CCNCC3)cc21` [Norofloxacin], the Diameter in test [12] is on record as 17.
